Source: the NIST ThermoML archive (doi:10.1016/j.fluid.2012.07.027)
Numbers after ± are expanded uncertainties.

Conditions: Liquid, Ebulliometric method (Recirculating still)

CCCCCOCCOCCOCCCCC [1-(2-(2-(pentyloxy)ethoxy)ethoxy)pentane]
Conditions	vapor or sublimation pressure [kPa]
427.5 K	2 ± 0.03
437.5 K	3 ± 0.03
444.6 K	4 ± 0.04
450.3 K	5 ± 0.05
455.1 K	6 ± 0.05
459.3 K	7 ± 0.06
461.2 K	7.5 ± 0.06
463 K	8 ± 0.07
466.2 K	9 ± 0.07
469.1 K	10 ± 0.08
471.7 K	11 ± 0.09
474.1 K	12 ± 0.09
476.3 K	13 ± 0.1
478.6 K	14 ± 0.1
480.7 K	15 ± 0.12
488.8 K	20 ± 0.14
495.7 K	25 ± 0.15
